Data from patent US7498406B2, “Substantially cell membrane impermeable compound and use thereof” (priority 1999, dated 2009).

What was measured:
Human T cells (A3.01) = assay: Tritiated GSAO in cytosol (membrane permeability); format: in vitro ADME
Protocol: (§1) Human T cells (A3.01) or adherent BAE cells were incubated with complete medium containing 50 μM GSAO and ˜100,000 counts per, minute of tritiated GSAO for 1 or 72 hours. Tritiated GSAO was prepared exactly as described for GSAO except that glycine-2-^3H-glutathione (NEN, Boston, Mass.) was used in place of cold glutathione. The cells were washed and lysed by two cycles of freezing and thawing. The cytosolic constituents were collected by differential centrifugation (Ausbel et al., 2000) and the tritiated GSAO was measured. Only 0.5% of the total tritiated GSAO was found in the T cell cytosol and 0.04% in the BAE cytosol after 1 hour. Moreover, only 4.5% of the GSAO penetrated the T cell membrane after 72 hours of culture.

[1] = Stability of the trivalent arsenicals towards oxidation; format: physicochemical; conditions: slowed by removal of O2, lower pH or glycine
From the text: This oxidation can be slowed in three ways; removal of dissolved O2 from solutions containing the arsenoxides, lowering the pH of these solutions, or by addition of glycine to the solutions. Glycine is routinely used to prevent oxidation of the stock solutions of the trivalent organoarsenicals. Similar to the reaction between 2,3-dimercaptopropanol and R—As(OH)2 in which a 5-membered dithioarsonite (XI) is formed, reaction of glycine with R—As(OH)2 is thought to give a 5-membered cyclic 1,3,2-oxazarsolidin-5-one (XII).

Thioredoxin = biological target: T1, Thioredoxin (Homo sapiens, UniProt P10599); assay: Inhibition of thioredoxin-mediated reduction of 70 kDa fibronectin fragment; format: biochemical; conditions: 10 μM GSAO, 1 μM thioredoxin, 10 minutes
T1 construct: purchased American Diagnostica, Greenwich, Conn; host or cells: E. coli
T1 sequence (P10599 whole entry, the tested form may be a part): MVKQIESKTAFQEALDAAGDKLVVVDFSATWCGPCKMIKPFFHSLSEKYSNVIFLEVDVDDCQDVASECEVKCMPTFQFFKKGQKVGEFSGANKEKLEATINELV
Protocol: FIG. 13. Inhibition of thioredoxin by GSAO. Thioredoxin (1 μM) was incubated with GSAO (0, 1 or 10 μM) for 10 minutes at room temperature in 20 mM Hepes, 0.14 M NaCl, pH 7.4 buffer. The 70 kDa fibronectin fragment (10 μg per mL) was added and incubated for 5 minutes at room temperature. The reactions were labelled with MPB (100 μM) for 10 minutes at 37° C. The MPB was quenched with GSH (200 μM) for 10 minutes at 37° C. followed by iodoacetamide (400 μM) for 10 minutes at room temperature. The MPB-labelled 70 kDa fragment was resolved on 5-15% SDS-PAGE, transferred to PVDF membrane and the MPB detected by blotting with streptavidin peroxidase. The positions of Mr markers are shown at left.
It was observed that thioredoxin reduced one or more protein disulfide bonds in the 70 kDa N-terminal fragment of fibronectin.

[2] = tested on: primary HIV isolates (HN11, HN68 or HN70); assay: Infection of PBMC's by primary HIV isolates, p24 antigen; format: cell-based; conditions: 10 μM, 7 days
Protocol: (§2) PBMC's (1×10^6 per mL) were incubated with GSAA or GSAO (10 μM) for 30 minutes at 37° C. and then with primary HIV isolates (HN11, HN68 or HN70 at 50 TCID50 per 10^6 cells) for 2 hours at 37° C. Cells were washed and incubated in complete medium containing GSAA or GSAO (10 μM) at 5% CO2 and 37° C. for up to 7 days. At the indicated times the conditioned medium was collected and assayed for p24 antigen and cell number and cell viability was determined.
(§3) The primary HIV isolates, HN11, HN68 and HN70, were provided by Dr. Hassan Naif, Centre for Virus Research, Westmead Millennium Institute, NSW, Australia. […] The blood was diluted 1:2 with PBS, layered onto Ficoll-Hypaque (35 mL blood onto 15 mL Ficoll-Hypaque) in 50 mL Falcon tubes and centrifuged at 400 g for 20 minutes at 20° C. The PBMC's were collected and pelleted at 1200 rpm for 10 minutes to remove platelets, resuspended at 2×10^6 cells per mL in RPMI containing 20% horse serum (Gibco BRL, Gaithersburg, Md.), 10 μg per mL phytohemagglutinin-M (PHA-M, Boehringer Mannheim Biochemica, Mannheim, Germany) and […] interleukin-2 (Sigma, St. Louis, Mo.) and incubated for 2 days at 5% CO2 and 37° C., PBMC (1×10^6 per mL) were incubated with GSAO or GSAA (10 μM) for 30 minutes at 37° C. in serum-free media. Virus was added at 50 TCID50 per 10^6 cells for 2 hours at 37° C.. […]

[3] = Titration of cysteine with GSAO, DTNB assay; format: binding; conditions: cysteine 28 μM, GSAO 0-50 μM, 10 minutes
Protocol: FIG. 11. Titration of DMP or cysteine with GSAO. DMP (15 ? M corresponding to 30 μM thiols) or cysteine (28 μM) was incubated with GSAO (0-50 μM) for 10 minutes. DTNB (950 μM) was then added and the reactions incubated for a further 10 minutes. The concentration of thiol in the reactions was determined from the absorbance of the TNB dianion at 412 nm.
A stock solution of DMP (5 μL, 50 μmol) was dissolved in DMSO (995 μL), giving a concentration of 50 mM DMP, A second dilution of the 50 mM DMP stock solution (10 μL) in pH 7.0 buffer (0.1 M HEPES, 0.3 M NaCl, 1 mM EDTA) (990 μL) gave a working solution of 500 ? M DMP. The activity of the arsenical could then be determined by the titration of varying amounts of arsenical against the DMP working solution (10 μL) in a 96-well microtitre plate, with the total volume made up to 195 μL by addition of buffer. After a 10 minute incubation at room temperature, during which time the solutions were agitated on a plate shaker, 5 μL of a 37.9 mM stock solution of DTNB (15 mg) in DMSO (1 mL) was added, and the plate incubated with shaking for another 10 minutes. The absorbance at 412 nm due to the formation of the TNB dianion was measured using a Molecular Devices Thermomax Plus (Palo Alto, Calif.) microplate reader. The extinction coefficient for the TNB dianion at pH 7.0 is 14, 150 M^−1cm^−1 at 412 nm (Riddles et al., 1983).

PBMC = assay: Cell number and cell viability in the PBMC HIV assay; conditions: 10 μM
Protocol: as §2, §3

BAE cells = assay: Tritiated GSAO in cytosol (membrane permeability); format: in vitro ADME, bovine; conditions: 50 μM GSAO, 1 hour
Protocol: as §1

## NC(CCC(=O)NC(CSCC(=O)Nc1ccc([As]=O)cc1)C(=O)NCC(=O)O)C(=O)O (stereo not shown) [GSAO, 4-(N-(S-glutathionylacetyl)amino)-phenylarsenoxide]
Human T cells (A3.01); 50 μM GSAO, 1 hour
  total tritiated GSAO found in the cytosol: 0.5%
Human T cells (A3.01); 50 μM GSAO, 72 hours of culture
  GSAO that penetrated the T cell membrane: 4.5%
Human T cells (A3.01); A3.01 or BAE cells
  crossing of the plasma membrane: does not cross the plasma membrane to any significant extent
[1]
  stability of solutions towards oxidation: deactivated over time by oxidation
Thioredoxin
  inhibition of thioredoxin activity: completely inhibited
[2]
  infection of PBMC's by primary HIV isolates: blocked infection
[3]
  interaction with cysteine in DTNB titration: any interaction of GSAO with cysteine was displaced by DTNB
PBMC
  proliferation of PBMC's: inhibited proliferation
PBMC; 7 days
  viability of PBMC's: no effect of cell viability
BAE cells
  total tritiated GSAO found in the cytosol: 0.04%
